Results taken from PubChem BioAssay (NCI).
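Briefly, cells in 96-well plates were exposed to five compound concentrations for 48 h, and endpoints were estimated by linear interpolation. The concentration for 50% growth inhibition is given as GI50. Definition used: TGI = concentration required for complete inhibition of growth.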

Experiments:
Assay in all cases: NCI anticancer screen, dose series, 48 h
CCRF-CEM leukemia = tested on: CCRF-CEM leukemia
MDA-MB-435 = tested on: MDA-MB-435
UO-31 renal = tested on: UO-31 renal
ACHN renal = tested on: ACHN renal
M14 melanoma = tested on: M14 melanoma
HOP-62 NSCLC = tested on: HOP-62 NSCLC
TK-10 renal = tested on: TK-10 renal
HOP-92 NSCLC = tested on: HOP-92 NSCLC
SK-MEL-2 melanoma = tested on: SK-MEL-2 melanoma
786-0 renal = tested on: 786-0 renal

SMILES | GI50 (CCRF-CEM leukemia) | TGI (CCRF-CEM leukemia) | GI50 (MDA-MB-435) | TGI (MDA-MB-435) | GI50 (UO-31 renal) | TGI (UO-31 renal) | GI50 (ACHN renal) | TGI (ACHN renal) | GI50 (M14 melanoma) | TGI (M14 melanoma) | GI50 (HOP-62 NSCLC) | TGI (HOP-62 NSCLC) | GI50 (TK-10 renal) | TGI (TK-10 renal) | GI50 (HOP-92 NSCLC) | TGI (HOP-92 NSCLC) | GI50 (SK-MEL-2 melanoma) | TGI (SK-MEL-2 melanoma) | GI50 (786-0 renal) | TGI (786-0 renal)
CC(C)=CCC/C(C)=C/CC/C(C)=C/CSC[C@H](NC(=O)CCCCCN1CCN(C)CC1)C(=O)NC1CCCCCC1 | 2.35 µM | 7.07 µM | 1.85 µM | 3.43 µM | 1.58 µM | 3.22 µM | 1.75 µM | 3.21 µM | 1.73 µM | 3.43 µM | 4.42 µM | 19.3 µM | 4.4 µM | 9.11 µM | 2.3 µM | 8.39 µM | 2.24 µM | 4.42 µM | 1.77 µM | 3.19 µM
CN1C(=O)C(c2c[nH]c3ccccc23)=C(c2c[nH]c3ccccc23)C1=O | 7.84 µM | > 25 µM | 5.49 µM | 16.2 µM | 2.64 µM | > 20.6 µM | 6 µM | > 25 µM | 5.96 µM | 17.2 µM | 6.68 µM | > 25 µM | 12.5 µM | > 25 µM | 3.08 µM | 13.3 µM | 5.26 µM | 13.4 µM | 9.85 µM | > 25 µM
Cn1ncnc1[C@@H]1c2n[nH]c(=O)c3cc(F)cc(c23)N[C@H]1c1ccc(F)cc1 | 91.6 µM | > 100 µM | > 100 µM | > 100 µM | 83.3 µM | > 100 µM | > 100 µM | > 100 µM | > 100 µM | > 100 µM | > 100 µM | > 100 µM | > 100 µM | > 100 µM | 92.6 µM | > 100 µM | > 100 µM | > 100 µM | > 100 µM | > 100 µM
CC1CCCCCC(=O)c2c(O)cc(O)cc2CC(=O)O1 (stereo not given) |  | > 100 µM |  | > 100 µM |  | > 100 µM |  | > 100 µM |  | > 100 µM |  | > 100 µM |  | > 100 µM |  | > 100 µM |  | > 100 µM |  | > 100 µM
CS(=O)(=O)OCCN(CCOS(C)(=O)=O)c1ccc(C=Nc2ccc(-c3csc(COc4ccccc4)n3)cc2)cc1 |  | 35.6 µM |  | 31.6 µM |  | 2.93 µM |  | 2.32 µM |  | 28.1 µM |  | 10.1 µM |  | 12.5 µM |  | 35 µM |  | 37.3 µM |  | 4.52 µM
O=c1nc2n(-c3cccc(Cl)c3)c3ccc([N+](=O)[O-])cc3cc-2c(=O)[nH]1 | 2.09 µM | > 25 µM | 4.06 µM | 8.09 µM | 5.87 µM | 13 µM | 5.32 µM | 16 µM | 6.55 µM | 16.8 µM | 2.88 µM | 9.2 µM | 7.27 µM | 13.9 µM | 7.75 µM | 24.7 µM | > 25 µM | > 25 µM | 4.49 µM | 9.5 µM
